Test: Effect of ibogaine on QT interval in treated patients
Format: in vivo, human
Conditions: stated in words only, no values
Description: A prolonged QT interval is a marker of potential Torsades de Pointes, a serious arrhythmia that can result in death. For reasons that are not apparent, this prolongation increases in opioid addicted patients as compared to healthy individuals. […] It is expected that other compounds that share ibogaine's core structure will have a similar prolongation effect on QT interval. See, U.S. Provisional Patent Application No. 61/945,746 filed Feb. 27, 2014 entitled METHOD FOR ACUTE AND LONG-TERM TREATMENT OF DRUG ADDICTION, which application is incorporated by reference in its entirety.
The effect of ibogaine, ibogaine derivative, or a pharmaceutically acceptable salt and/or solvate thereof on QT interval is evaluated in substance-dependent participants in a randomized, placebo-controlled, double-blind trial. Patients are administered 60 mg or 120 mg of the compound and QT interval is measured.

Q: For `CCC1CC2CC3c4[nH]c5ccc(OC)cc5c4CCN(C2)C13` (stereo not shown) [ibogaine], which “prolongation of the treated patient's QT interval” value is on record?
A: dose dependent prolongation
